These results are taken from patent US8148391B2 (Cephalon, Inc., priority 2006, dated 2012).

For test [1], the target named is T1, c-Met (cytoplasmic domain) (Homo sapiens, UniProt P08581).
T1 construct: 10 ng/mL c-Met (cytoplasmic domain, Invitrogen Corporation #PV3143); purchased Invitrogen Corporation PV3143
The test can be described thus: c-Met Kinase Assay (same methods as for ALK, with modifications). Type of test: biochemical. The gist of the method:
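This plate-based kinase format uses immobilized phospholipase C-γ as substrate, phosphorylated by c-Met cytoplasmic domain (10 ng/mL) at 37° C for 15 minutes.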

Test [2] deals with T2, baculovirus-expressed ALK (Homo sapiens, UniProt Q9UM73).
T2 construct: host or cells: baculovirus expression system
The test can be described thus: ALK Kinase Assay (ELISA-type, time-resolved fluorescence). It counts as biochemical. The method, boiled down: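 Substrate coating: phospholipase C-γ, 10 μg/mL in TBS. Kinase step: 30 ng/ml ALK, 15 min, 37° C. Detection and analysis: Eu-N1 PT66 antibody, with IC50 fitted as a sigmoidal variable-slope dose-response curve.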
In general terms: ELISA stands for enzyme-linked immunosorbent assay.

[3] abbreviates: c-Met kinase inhibition, 1 μM ATP, read-out: cMet Activity.
The mark [4] stands for this setting: ALK kinase inhibition, 1 μM ATP, read-out: ALK Activity.
[5] abbreviates: c-Met kinase inhibition, 1 μM ATP (Km level), read-out: cMet Activity.
[6] abbreviates: ALK kinase inhibition, 1 μM ATP (Km level), read-out: ALK Activity.
The mark [7] stands for this setting: 1 μM ATP (Km level), read-out: cMet Activity (c-Met Kinase Inhibition, IC50).
The mark [8] stands for this setting: 1 μM ATP (Km level), read-out: ALK Activity (ALK Kinase Inhibition, IC50).
[9] abbreviates: 1 μM ATP (Km level), 10 ng/mL c-Met, read-out: cMet Activity (c-Met kinase inhibition, IC50 class).
Where [10] appears, read: 1 μM ATP (Km level), 30 ng/ml ALK, 37° C., 15 minutes, read-out: ALK Activity (ALK kinase inhibition, IC50 class).

Where two headings read alike, the source gives them in different places.

T1 sequence (P08581 956-1390 limits assumed): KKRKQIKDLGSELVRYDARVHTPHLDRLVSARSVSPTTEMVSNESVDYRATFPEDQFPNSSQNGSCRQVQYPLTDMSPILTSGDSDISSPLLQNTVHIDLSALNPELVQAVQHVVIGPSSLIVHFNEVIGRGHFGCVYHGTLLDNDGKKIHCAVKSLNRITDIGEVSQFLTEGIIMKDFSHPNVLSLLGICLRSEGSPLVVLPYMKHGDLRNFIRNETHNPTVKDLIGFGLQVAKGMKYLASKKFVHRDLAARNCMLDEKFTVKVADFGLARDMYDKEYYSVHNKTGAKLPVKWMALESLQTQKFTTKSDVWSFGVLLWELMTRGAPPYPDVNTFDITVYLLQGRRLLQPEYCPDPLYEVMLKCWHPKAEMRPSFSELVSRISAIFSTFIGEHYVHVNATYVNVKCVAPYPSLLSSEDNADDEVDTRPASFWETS
T2 sequence (Q9UM73 19-1620): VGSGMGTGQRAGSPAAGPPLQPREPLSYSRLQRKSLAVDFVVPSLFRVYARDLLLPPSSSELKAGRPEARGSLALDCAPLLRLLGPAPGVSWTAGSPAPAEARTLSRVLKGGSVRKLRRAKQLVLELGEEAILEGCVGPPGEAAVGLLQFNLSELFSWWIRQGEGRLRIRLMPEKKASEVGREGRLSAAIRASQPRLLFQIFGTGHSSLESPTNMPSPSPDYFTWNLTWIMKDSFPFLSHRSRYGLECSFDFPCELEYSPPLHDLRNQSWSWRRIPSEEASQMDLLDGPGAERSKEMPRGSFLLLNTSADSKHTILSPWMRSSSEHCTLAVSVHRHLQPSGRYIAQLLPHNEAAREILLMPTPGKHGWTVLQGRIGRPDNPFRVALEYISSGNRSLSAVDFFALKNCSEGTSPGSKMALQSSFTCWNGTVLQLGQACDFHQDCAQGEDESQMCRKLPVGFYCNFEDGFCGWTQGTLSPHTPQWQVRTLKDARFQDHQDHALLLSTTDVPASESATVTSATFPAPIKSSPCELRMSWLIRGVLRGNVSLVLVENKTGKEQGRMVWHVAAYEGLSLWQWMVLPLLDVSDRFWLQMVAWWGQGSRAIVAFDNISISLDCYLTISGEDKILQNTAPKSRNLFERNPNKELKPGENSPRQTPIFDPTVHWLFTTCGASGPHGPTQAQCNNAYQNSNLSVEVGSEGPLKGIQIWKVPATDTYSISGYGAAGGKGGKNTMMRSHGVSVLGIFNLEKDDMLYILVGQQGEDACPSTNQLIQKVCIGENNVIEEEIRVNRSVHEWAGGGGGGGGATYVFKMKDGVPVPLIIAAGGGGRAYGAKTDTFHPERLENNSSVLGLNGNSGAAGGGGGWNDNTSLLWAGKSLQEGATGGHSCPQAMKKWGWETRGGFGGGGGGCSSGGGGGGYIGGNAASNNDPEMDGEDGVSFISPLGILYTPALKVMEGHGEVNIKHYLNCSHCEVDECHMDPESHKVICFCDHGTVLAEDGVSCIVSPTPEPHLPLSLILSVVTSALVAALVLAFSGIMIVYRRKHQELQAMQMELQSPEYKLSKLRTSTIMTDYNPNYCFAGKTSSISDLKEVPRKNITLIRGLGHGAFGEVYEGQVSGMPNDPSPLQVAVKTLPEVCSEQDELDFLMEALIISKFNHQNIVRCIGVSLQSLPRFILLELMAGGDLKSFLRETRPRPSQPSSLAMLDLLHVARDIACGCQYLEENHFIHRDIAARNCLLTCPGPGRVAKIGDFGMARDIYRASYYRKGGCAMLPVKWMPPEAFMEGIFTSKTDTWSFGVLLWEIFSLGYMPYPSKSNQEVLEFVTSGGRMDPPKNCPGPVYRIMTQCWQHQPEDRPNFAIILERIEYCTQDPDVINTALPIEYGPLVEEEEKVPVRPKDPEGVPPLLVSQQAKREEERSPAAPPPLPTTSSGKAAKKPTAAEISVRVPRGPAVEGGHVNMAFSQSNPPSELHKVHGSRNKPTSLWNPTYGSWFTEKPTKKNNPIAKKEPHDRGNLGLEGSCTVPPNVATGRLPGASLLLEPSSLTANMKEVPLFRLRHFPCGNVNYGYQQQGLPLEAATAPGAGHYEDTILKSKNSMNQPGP

Take `COCCN1CCc2ccc(Nc3ncc(Cl)c(N[C@H]4CCC[C@H]4NS(C)(=O)=O)n3)cc2CC1` [Example 1501, N-((1R,2S)-2-{5-Chloro-2-[3-(2-methoxy-ethyl)-2,3,4,5-tetrahydro-1H-benzo[d]azepin-7-ylamino]-pyrimidin-4-ylamino}-cyclopentyl)-methanesulfonamide]: the IC50 in test [1] (setting [3]) was 1000 to 10000 nM; in test [2] (setting [4]) it was 100 to 1000 nM.
For `CNC(=O)c1ccccc1Nc1nc(Nc2ccc3c(c2)C2CCC(C3)N2C(C)C)ncc1Cl` (stereo not drawn) [Example 80, 2-[5-Chloro-2-(12-isopropyl-12-aza-tricyclo[7.2.1.0*2,7*]dodeca-2(7),3,5-trien-4-ylamino)-pyrimidin-4-ylamino]-N-methyl-benzamide], the IC50 in test [1] (setting [5]) and in test [2] (setting [6]) was less than 100 nM each time.
Regarding `O=C1CCCc2ccc(Nc3ncc(Cl)c(Nc4ccccc4OCCN4CCOCC4)n3)cc2N1` [Example 1465, 8-{5-Chloro-4-[2-(2-morpholin-4-yl-ethoxy)-phenylamino]-pyrimidin-2-ylamino}-1,3,4,5-tetrahydro-benzo[b]azepin-2-one], the IC50 in test [1] (setting [3]) and in test [2] (setting [4]) was more than 10000 nM each time.
Turning to `CCN1CCc2ccc(Nc3ncc(Cl)c(Nc4ccccc4OCC#N)n3)cc2CC1` [Example 928, {2-[5-Chloro-2-(3-ethyl-2,3,4,5-tetrahydro-1H-benzo[d]azepin-7-ylamino)-pyrimidin-4-ylamino]-phenoxy}-acetonitrile], the IC50 in test [1] (setting [7]) and in test [2] (setting [8]) was less than 100 nM throughout.
`CCN1C(=O)[C@@H](N)CCc2c1ccc(Nc1ncc(Cl)c(N[C@H]3[C@@H](C(N)=O)[C@@H]4C=C[C@H]3C4)n1)c2OC` (single isomer, unassigned) [Example 1332]: the IC50 is more than 10000 nM in test [1] (setting [9]) and less than 100 nM in test [2] (setting [10]).
For the molecule `COc1cc2c(cc1Nc1ncc(Cl)c(Nc3ccccc3S(=O)(=O)N(C)C)n1)CCN(CCOC(=O)[C@@H](N)C(C)C)CC2` [Example 1544, (S)-2-Amino-3-methyl-butyric acid 2-{7-[5-chloro-4-(2-dimethylsulfamoyl-phenylamino)-pyrimidin-2-ylamino]-8-methoxy-1,2,4,5-tetrahydro-3-benzazepin-3-yl}-ethyl ester], the IC50 was 1000 to 10000 nM in test [1] (setting [3]) and less than 100 nM in test [2] (setting [4]).
As to `CCN1CCc2ccc(Nc3ncc(Cl)c(Nc4ccccc4S(=O)(=O)NC)n3)cc2CC1` [Example 32, 2-[5-Chloro-2-(3-ethyl-2,3,4,5-tetrahydro-1H-benzo[d]azepin-7-ylamino)-pyrimidin-4-ylamino]-N-methyl-benzenesulfonamide], the IC50 in test [1] (setting [5]) and in test [2] (setting [6]) was less than 100 nM each time.
Turning to `COc1cc2c(cc1Nc1ncc(Cl)c(Nc3ccc(N4CCN(C)CC4)cc3OC)n1)CCN(CC(C)(F)F)CC2` [Example 781, 5-Chloro-N*2*-[3-(2,2-difluoro-propyl)-8-methoxy-2,3,4,5-tetrahydro-1H-benzo[d]azepin-7-yl]-N*4*-[2-methoxy-4-(4-methyl-piperazin-1-yl)-phenyl]-pyrimidine-2,4-diamine], the results for the IC50 in test [1] (setting [7]) and in test [2] (setting [8]) were more than 10000 nM and less than 100 nM, respectively.
Consider `CS(=O)(=O)Nc1ccccc1Nc1nc(Nc2ccc3c(c2)C2CCC3CN(C(=O)C(F)(F)F)C2)ncc1Cl` (stereo not drawn) [Example 291, N-(2-{5-Chloro-2-[10-(2,2,2-trifluoro-acetyl)-10-aza-tricyclo[6.3.2.0*2,7*]trideca-2,4,6-trien-4-ylamino]-pyrimidin-4-ylamino}-phenyl)-methanesulfonamide], for which the IC50 in test [1] (setting [5]) was 1000 to 10000 nM; in test [2] (setting [6]) it was less than 100 nM.
With `COc1cc2c(cc1Nc1ncc(Cl)c(NC3(C(=O)NCC#N)CC3)n1)CCN(CC(=O)N(C)C)CC2` [Example 1199, 1-[5-Chloro-2-(3-dimethylcarbamoylmethyl-8-methoxy-2,3,4,5-tetrahydro-1H-benzo[d]azepin-7-ylamino)-pyrimidin-4-ylamino]-cyclopropanecarboxylic acid cyanomethyl-amide], the IC50 in test [1] (setting [9]) is more than 10000 nM; in test [2] (setting [10]), 100 to 1000 nM.
In the case of `O=C1CCCc2cc(Nc3ncc(Cl)c(Nc4ccccc4-c4cnco4)n3)ccc2N1` [Example 997, 7-[5-Chloro-4-(2-oxazol-5-ylphenylamino)-pyrimidin-2-ylamino]-1,3,4,5-tetrahydro-benzo[b]azepin-2-one], the IC50 in test [1] (setting [7]) and in test [2] (setting [8]) was 100 to 1000 nM each time.
As to `COc1cc2c(cc1Nc1ncc(Cl)c(N[C@@H]3CCCC[C@H]3NS(C)(=O)=O)n1)CCC(N1CCN(C)CC1)CC2` (single isomer, unassigned) [Example 1102], the IC50 in test [1] (setting [9]) and in test [2] (setting [10]) was less than 100 nM in each case.
Turning to `CNC(=O)c1ccccc1Nc1nc(Nc2ccc3c(c2)CCC(NCC(F)F)CC3)ncc1Cl` (stereo not drawn) [Example 660, 2-{5-Chloro-2-[7-(2,2-difluoro-ethylamino)-6,7,8,9-tetrahydro-5H-benzocyclohepten-2-ylamino]-pyrimidin-4-ylamino}-N-methyl-benzamide], the IC50 in test [1] (setting [7]) and in test [2] (setting [8]) was less than 100 nM each time.
`COc1cc2c(cc1Nc1ncc(Cl)c(Nc3ccccc3S(=O)(=O)N(C)C)n1)CCN(CC(C)O)CC2` (stereo not drawn) [Example 1547, 2-{5-Chloro-2-[3-(2-hydroxy-propyl)-8-methoxy-2,3,4,5-tetrahydro-1H-3-benzazepin-7-ylamino]-pyrimidin-4-ylamino}-N,N-dimethyl-benzenesulfonamide]: the IC50 in test [1] (setting [3]) is 1000 to 10000 nM; in test [2] (setting [4]), less than 100 nM.
For the molecule `CC(C)N1CC2CCC(C1)c1cc(Nc3ncc(Cl)c(N[C@@H]4CCCC[C@H]4NS(C)(=O)=O)n3)ccc12` (stereo partly drawn) [Example 296, N-{(1R,2R)-2-[5-Chloro-2-(10-Isopropyl-10-aza-tricyclo[6.3.2.0*2,7*]trideca-2,4,6-trien-4-ylamino)-pyrimidin-4-ylamino]-cyclohexyl}-methanesulfonamide], the IC50 was 100 to 1000 nM in test [1] (setting [5]) and less than 100 nM in test [2] (setting [6]).
In the case of `C#CCNC(=O)c1cccc(F)c1Nc1nc(Nc2ccc3c(c2)NCCCC3(C)C)ncc1Cl` [Example 1612, 2-[5-Chloro-2-(5,5-dimethyl-2,3,4,5-tetrahydro-1H-benzo[b]azepin-8-ylamino)-pyrimidin-4-ylamino]-3-fluoro-N-prop-2-ynyl-benzamide], the IC50 in test [1] (setting [3]) and in test [2] (setting [4]) was 100 to 1000 nM in each case.
Turning to `COc1cc2c(cc1Nc1ncc(Cl)c(Nc3ccc(N4CCOCC4)cc3S(=O)(=O)N(C)C)n1)CCN(CC(=O)N(C)C)CC2` [Example 834, 2-{7-[5-Chloro-4-(2-dimethylsulfamoyl-4-morpholin-4-yl-phenylamino)-pyrimidin-2-ylamino]-8-methoxy-1,2,4,5-tetrahydro-benzo[d]azepin-3-yl}-N,N-dimethyl-acetamide], the IC50 in test [1] (setting [7]) was more than 10000 nM; in test [2] (setting [8]), less than 100 nM.
For `COCCN1CCc2cc(Nc3ncc(Cl)c(Nc4ccccc4-c4ncccc4C)n3)c(OC)cc2CC1` [Example 987, 5-Chloro-N*2*-[8-methoxy-3-(2-methoxy-ethyl)-2,3,4,5-tetrahydro-1H-benzo[d]azepin-7-yl]-N*4*-[2-(3-methyl-pyridin-2-yl)-phenyl]-pyrimidine-2,4-diamine] the same measures were more than 10000 nM and less than 100 nM.
